In brackets after ≈: the same amount, converted by molar mass. Inconclusive results are not listed. Activity calls are given as the source filed them. The rule behind the calls is not given here.
Test system: M. tuberculosis H37Rv growth inhibition
Assay: Confirmatory growth inhibition assay against Mycobacterium tuberculosis H37Rv, potency (AID 1949);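 note: bacteria grown 7 days with compound before Alamar blue readout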

Compound	IC50
CCn1c(NC(=S)Nc2ccccc2)nc2ccccc21	> 50 µg/mL (inactive)
C=C(C)CN1CCN(c2nc(NCc3ccco3)c3ccccc3n2)CC1	4.56 µg/mL (≈ 12.5 µM)
CCc1nccn1S(=O)(=O)c1ccccc1[N+](=O)[O-]	> 50 µg/mL (inactive)
Cc1ccc(C(=O)N2CCN(c3ccc(NC(=O)COc4c(C)cc(C)cc4Br)cc3)CC2)cc1	1.34 µg/mL (≈ 2.5 µM)
COc1ccc(-c2csc(Nc3ncccc3C)n2)cc1	24.5 µg/mL (≈ 82.5 µM)
Cc1ccc(C(=O)Nc2nc(C(C)(C)C)cs2)cc1[N+](=O)[O-]	27.2 µg/mL (≈ 85.3 µM)
CCOC(=O)c1c(NC(C)=O)sc2c(OCC(O)CN(CC)CC)c(Br)ccc12 (configuration not stated)	4.61 µg/mL (≈ 9.46 µM)
CC1CCN(c2cc(/C=C(\C#N)c3nn(-c4ccccc4)c(N)c3C#N)c3ccccc3n2)CC1	> 50 µg/mL (inactive)
O=c1c2ccccc2nc(/C=C/c2ccc([N+](=O)[O-])o2)n1-c1cccc(O)c1	0.65 µg/mL (≈ 1.73 µM)
Cc1c(OC(=O)c2ccccc2Cl)ccc2c1CCCC2	2.51 µg/mL (≈ 8.34 µM)
Oc1ccc(Br)c2cccnc12	< 0.1 µg/mL
N#Cc1ccc(NC(=O)CSc2ccc(Br)cc2)cc1	3.04 µg/mL (≈ 8.75 µM)
CCn1cc(C(=O)O)c(=O)c2cc(F)c(N3CCN(S(=O)(=O)c4ccc(NC(C)=O)cc4)CC3)cc21	36.6 µg/mL (≈ 70.8 µM)
CCn1c2ccccc2c2nnc(SCCCn3c(=O)[nH]c4ccccc43)nc21	> 50 µg/mL (inactive)
O=C(Nc1nc2c(s1)CCCC2)c1ccc(Br)s1	0.62 µg/mL (≈ 1.81 µM)
CCN1C(=O)c2cccc3c([N+](=O)[O-])ccc(c23)C1=O	> 50 µg/mL (inactive)
CC(NCc1cccc(OCc2ccccc2)c1)C(O)c1ccccc1 (configuration not stated)	5.53 µg/mL (≈ 15.9 µM)
O=C(CC1(O)C(=O)N(CCc2ccccc2)c2ccc(Cl)cc21)c1ccccn1 (configuration not stated)	5.07 µg/mL (≈ 12.5 µM)
C/C(Cl)=C/Cc1c(C)[nH]c2ccccc2c1=O	16.6 µg/mL (≈ 67.2 µM)

Compound	IC50
CCOC(=O)c1ccccc1OC(=O)c1c(F)c(F)c(F)c(F)c1F	9.77 µg/mL (≈ 27.1 µM)
O=c1c2ccccc2nc(CSc2ncnc3ccccc23)n1-c1ccc(Cl)c(Cl)c1	> 50 µg/mL (inactive)
Nc1nc2ccccc2n1CCOc1ccc(Cl)cc1Cl	3.85 µg/mL (≈ 11.9 µM)
COC(=O)c1ccc2c(=O)n(-c3ccccc3)c(SCc3ccccc3)nc2c1	22.6 µg/mL (≈ 56.2 µM)
CN1CCN(c2ccc(C(=O)Nc3cccc(Cl)c3)cc2[N+](=O)[O-])CC1	4.41 µg/mL (≈ 11.8 µM)
COC(=O)COc1ccc2cc(-c3ccc(OC)c(OC)c3)c(=O)oc2c1	1.03 µg/mL (≈ 2.78 µM)
CCn1c2ccc(F)cc2c2nc3ccccc3nc21	6.92 µg/mL (≈ 26.1 µM)
c1ccc(CN2CCN(CCCOc3cccc4ccccc34)CC2)cc1	4.68 µg/mL (≈ 13 µM)
Clc1ccc(OCc2ccccc2Cl)c(CNCc2ccccc2)c1	5.09 µg/mL (≈ 13.7 µM)
O=C(/C=C/c1ccccc1OC(=O)c1cccnc1)c1ccc(Cl)cc1	5.61 µg/mL (≈ 15.4 µM)
Cc1cc(O)ccc1Nc1nc(-c2ccccn2)cs1	1.42 µg/mL (≈ 5.01 µM)
O=C(CSc1n[nH]c(-c2ccc(Cl)cc2)n1)Nc1ccccc1Cl	4.21 µg/mL (≈ 11.1 µM)
COc1cc(Br)cc2cc(C(=O)Nc3cccc(C(F)(F)F)c3)c(=O)oc12	0.11 µg/mL (≈ 0.249 µM)
c1cc2c3c(cccc3c1)NC1(CCCCCC1)N2	> 50 µg/mL (inactive)
CNCc1ccc(OCc2ccc(Cl)cc2Cl)cc1	4.85 µg/mL (≈ 16.4 µM)
CCC(C)c1ccc(OCCCCn2ccnc2)cc1 (configuration not stated)	1.12 µg/mL (≈ 4.11 µM)
CCN1CCN(c2ccc(NC(=O)c3cc4ccccc4cc3OC)cc2Cl)CC1	23.9 µg/mL (≈ 56.5 µM)
O=C1c2ccccc2C(=O)c2c1nc1ccccn21	2.87 µg/mL (≈ 11.6 µM)
CC(C)(C)c1ccc(-c2nn3c(Cc4ccccc4)nnc3s2)cc1	> 50 µg/mL (inactive)

Compound	IC50
CC(=O)c1ccc2[nH]c3ccc(C(C)=O)cc3c2c1	0.2 µg/mL (≈ 0.796 µM)
CC(=O)Oc1ccc2nc(-c3ccc(C(C)(C)C)cc3)oc(=O)c2c1	> 50 µg/mL (inactive)
Cc1cccc(Nc2cc(Cl)c3nonc3c2[N+](=O)[O-])c1C	1.28 µg/mL (≈ 4.02 µM)
CCC(C)(C)c1ccc(OCCCn2ccnc2)cc1	1.92 µg/mL (≈ 7.05 µM)
C=C(C)Cn1c(=S)[nH]c2sc3c(c2c1=O)CCc1ccccc1-3	> 50 µg/mL (inactive)
O=C(Nc1cccc(Br)c1)c1ccc(-c2ccc(Cl)cc2)o1	1.39 µg/mL (≈ 3.69 µM)
O=C(CSc1nnc(SCc2cccc3ccccc23)s1)Nc1ccccc1F	1.45 µg/mL (≈ 3.28 µM)
CCOc1cc(CNCc2ccccc2OCc2ccccc2)cc(Cl)c1OCC	1.94 µg/mL (≈ 4.55 µM)
Cc1ccc2oc(-c3cc(NC(=O)Cc4ccccc4)ccc3Cl)nc2c1	< 0.1 µg/mL
CCOc1ccc(NC(=S)Nc2ccc3nsnc3c2)cc1	0.52 µg/mL (≈ 1.57 µM)
O=C(CC(O)(C(F)(F)F)C(F)(F)F)Nc1ccc(Cl)c(Cl)c1	1.51 µg/mL (≈ 4.08 µM)
O=C(Oc1ccccc1)c1cccc(COC(=O)c2cnccn2)c1	28 µg/mL (≈ 83.8 µM)
CCOC(=O)c1ccc(NC(=S)Nc2cccc([N+](=O)[O-])c2)cc1	0.23 µg/mL (≈ 0.666 µM)
O=C(Nc1ccc(Cl)c(Br)c1)c1ccc(Cl)cc1Cl	4.23 µg/mL (≈ 11.1 µM)
c1ccc(CNc2cc(-n3cccn3)nc(-c3ccccc3)n2)cc1	> 50 µg/mL (inactive)
CCCOc1ccccc1-c1nc(SCC(=O)OCC)n[nH]1	1.86 µg/mL (≈ 5.79 µM)
Cc1nc2c(-c3ccccc3)c[nH]n2c(=O)c1Cc1ccccc1	> 50 µg/mL (inactive)
Cc1cccc(OCCCn2cnc3cc(C)c(C)cc32)c1	1.84 µg/mL (≈ 6.25 µM)
COc1ccc(C23CC4CC(CC(C4)C2)C3)cc1C(=O)NCCN(C)C	10.8 µg/mL (≈ 30.3 µM)

Reference: PubChem BioAssay AID1949 (Southern Research Institute, 2009)
